Data published in US6215002A, “Pyrrolopyrrolone derivatives as inhibitors of neutrophil elastase” (priority 1996, dated 2001).
Counter-ions that a name gives are not always drawn.

Biological target: T1, human neutrophil elastase (Homo sapiens, UniProt P08246)
T1 sequence (P08246 30-267): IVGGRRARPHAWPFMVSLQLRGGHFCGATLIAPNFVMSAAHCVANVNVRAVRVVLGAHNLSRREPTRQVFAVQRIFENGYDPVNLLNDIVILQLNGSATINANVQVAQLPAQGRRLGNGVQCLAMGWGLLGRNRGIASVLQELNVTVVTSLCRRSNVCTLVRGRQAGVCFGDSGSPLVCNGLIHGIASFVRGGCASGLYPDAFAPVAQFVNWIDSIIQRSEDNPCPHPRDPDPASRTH
Experiment: In vitro assay of human neutrophil elastase (HNE)
Assay type: biochemical
Details: 118 nM purified human neutrophil elastase, pH 8.6, 15 min incubation at 30° C., MeO-succinyl-alanyl-alanyl-prolyl-valyl-p-nitroanilide substrate; read-out: HNE IC50
Procedure, shortened: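 Residual activity was taken as the 10 min rate of absorbance rise at 405 nm after adding 0.6 mM MeO-succinyl-AAPV-p-nitroanilide. Curve fitting of activity against concentration gave IC50.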

SMILES	IC50
C=CC[C@H]1C(=O)N(S(=O)(=O)c2csc3ccccc23)[C@H]2CCN(C(=O)OCc3ccccc3)[C@H]12 (relative stereo) [Example 41, rel-(3aS,6R,6aR)-6-Allyl-4-(benzo[b]thiophene-3-sulfonyl)-5-oxo-hexahydro-pyrrolo[3,2-b]pyrrole-1-carboxylic acid benzyl ester]	84 nM
CCC[C@H]1C(=O)N(S(=O)(=O)c2ccc3ccccc3c2)[C@H]2CCN(S(=O)(=O)CCCN3CCCCC3)[C@H]12 (relative stereo) [Example 13, rel-(3R,3aR,6aS)-1-(Naphthalene-2-sulfonyl)-(3-piperidin-1-yl-propane-1-sulfonyl)-3-propyl-hexahydro-pyrrolo[3,2-b]pyrrol-2-one]	543 nM
CCC[C@H]1C(=O)N(S(C)(=O)=O)[C@H]2CCN(S(=O)(=O)c3ccc(N(C)C)cc3)[C@H]12 (relative stereo) [Example 221, rel-(3R, 3aR,6aS)-4-[4-Dimethylamino-benzenesufonyl)-1-methanesulfonyl-3-propyl-hexahydro-pyrrolo[3,2-b]pyrrol-2-one]	27 nM
CCC[C@H]1C(=O)N(S(=O)(=O)CC(F)(F)F)[C@H]2CCN(C(=O)CCN3CCCCC3)[C@H]12 (relative stereo) [Example 164, rel-(3R,3aR,6aS)-4-(3-Piperidin-1-yl-propionyl)-3-propyl-1-(2,2,2-trifluoro-ethanesulfonyl)-hexahydro-pyrrolo[3,2-b]pyrrol-2-one DL-tartrate]	413 nM
CCC[C@H]1C(=O)N(S(C)(=O)=O)[C@H]2CCN(C(=O)CCN3CCCC3)[C@H]12 (relative stereo) [Example 93, rel-(3R,3aR,6aS)-1-Methanesulfonyl-3-propyl-4-(3-pyrrolidin-1-yl-propionyl)-hexahydro-pyrrolo[3,2-b]pyrrol-2-one hydrochloride]	89 nM
CCC[C@H]1C(=O)N(S(C)(=O)=O)[C@H]2CCN(S(=O)(=O)c3ccccc3)[C@H]12 (relative stereo) [Example 219, rel-(3R,3aR,6aS)-4-Benzenesulfonyl-1-methanesulfonyl-3-propyl-hexahydro-pyrrolo[3,2-]pyrrol-2-one]	10 nM
CCC[C@H]1C(=O)N(S(C)(=O)=O)[C@H]2CCN(S(=O)(=O)CCCN3CCCCC3)[C@H]12 (relative stereo) [Example 9, rel-(3R,3aR,6aS)-1-Methanesulfonyl-4-(3-piperidin-1-yl-propane-1-sulfonyl)-3-propyl-hexahydro-pyrrolo[3,2-b]pyrrol-2-one]	54 nM
CCC[C@H]1C(=O)N(S(=O)(=O)c2ccc3ccccc3c2)[C@H]2CCN(S(=O)(=O)Cc3cccc(-c4nnn[nH]4)c3)[C@H]12 (relative stereo) [Example 23, rel-(3R,3aR,6aS)-1(Naphthalene-2-sulfonyl)-3-propyl-4-[3-(1H-tetrazol-5-yl)-phenylmethanesulfonyl]-hexahydro-pyrrolo[3,2-b]pyrrole-2-one]	75 nM
C=CC[C@H]1C(=O)N(S(=O)(=O)Cc2ccccc2)[C@H]2CCN(C(=O)OCc3ccccc3)[C@H]12 (relative stereo) [Example 21, rel-3aS,6R,6aR)-6-Allyl-5-oxo-4-phenylmethanesylfonyl-hexahydro-pyrrolo[3,2-b]pyrrole-1-carboxylic acid benzyl ester]	491 nM
CCC[C@H]1C(=O)N(S(C)(=O)=O)[C@H]2CCN(C(=O)Cn3ccccc3=O)[C@H]12 (relative stereo) [Example 112, rel-(3R,3aR,6aS)-1-Methanesulfonyl-4-[(2-oxo-2H-pyridin-1-yl)-acetyl]-3-propyl-hexahydro-pyrrolo[3,2-b]pyrrol-2-one]	222 nM
CCC[C@H]1C(=O)N(S(=O)(=O)CC)[C@H]2CCN(C(=O)CCN3CCCCC3)[C@H]12 (relative stereo) [Example 160, rel-(3R,3aR,6aS)-1-Ethanesulfonyl-4-(3-piperidin-1-yl-propionyl)-3-propyl-hexahydro-pyrrolo[3,2-b]pyrrol-2-one DL-tartrate]	119 nM
CCC[C@H]1C(=O)N(S(C)(=O)=O)[C@H]2CCN(C(=O)c3cccs3)[C@H]12 (relative stereo) [Example 232, rel-(3R,3aR,6aS)-1-Methanesulfonyl-3-propyl-4-(thiophene-2-carbonyl)-hexahydro-pyrrolo[3,2-b]pyrrol-2-one]	78 nM
C=CC[C@H]1C(=O)N(S(=O)(=O)CCc2ccccc2)[C@H]2CCN(C(=O)OCc3ccccc3)[C@H]12 (relative stereo) [Example 43, rel-(3aS,6R,6aR)-6-Allyl-5-oxo-4-(2-phenyl-ethanesulfonyl)-hexahydro-pyrrolo[3,2-b]pyrrole-1-carboxylic acid benzyl ester]	408 nM
CCC[C@H]1C(=O)N(S(C)(=O)=O)[C@H]2CCN(S(=O)(=O)CCCN3CCOCC3)[C@H]12 (relative stereo) [Example 8, rel-(3R,3aR,6aS)-1-Methanesulfonyl-4-(3-morpholin-4-yl-propane-1-sulfonyl)-3-propyl-hexahydro-pyrrolo[3,2-b]pyrrol-2-one]	29 nM
C=CC[C@H]1C(=O)N(S(=O)(=O)c2ccc3c(c2)CCCC3)[C@H]2CCN(C(=O)OCc3ccccc3)[C@H]12 (relative stereo) [Example 20, rel-(3aS,6R,6aR)-6-Allyl-5-oxo-4-(5,6,7,8-tetrahydro-naphthalene-2-sulfonyl)-hexahydro-pyrrolo[3,2-b]pyrrole-1-carboxylic acid benzyl ester]	57 nM
CCC[C@H]1C(=O)N(S(=O)(=O)c2ccc3ccccc3c2)[C@H]2CCN(S(=O)(=O)CCCCN3CCOCC3)[C@H]12 (relative stereo) [Example 11, rel-(3R,3aR,6aS)-4-(4-Morpholin-4-yl-butane-1-sulfonyl)-1-(naphthalene-2-sulfonyl)-3-propyl-hexahydro-pyrrolo[3,2-b]pyrrol-2-one]	111 nM
CCC[C@H]1C(=O)N(S(C)(=O)=O)[C@H]2CCN(C(=O)c3ccccc3)[C@H]12 (relative stereo) [Example 233, rel-(3R,3aR,6aS)-4-Benzoyl-1-methanesulfonyl-3-propyl-hexahydro-pyrrolo[3,2-b]pyrrol-2-one]	62 nM
CC(C)[C@H]1C(=O)N(S(C)(=O)=O)[C@H]2CCN(S(=O)(=O)c3ccc(C(F)(F)F)cc3)[C@H]12 (relative stereo) [Example 228, rel-(3R,3aR,6aS)-3-Isopropyl-1-methanesulfony]4-(4-trifluoromethyl-benzenesulfonyl)-hexahydro-pyrrolo[3,2-b]pyrrol-2-one]	68 nM
CCC[C@H]1C(=O)N(S(=O)(=O)c2ccc3ccccc3c2)[C@H]2CCN(C(=O)CCN3CCCCC3)[C@H]12 [Example 56, (3R,3aR,6aS)-1-(Naphthalene-2-sulfonyl)-4-(3-piperidin-1-yl-propionyl)-3-propyl-hexahydro-pyrrolo[3,2-b]pyrrol-2-one hydrochloride]	81 nM
CCC[C@H]1C(=O)N(S(C)(=O)=O)[C@H]2CCN(S(=O)(=O)c3ccc(C(=O)N4CCN(C)CC4)cc3)[C@H]12 (relative stereo) [Example 127, rel-(3R,3aR,6aS)-1-Methanesulfonyl-4-[4-(4-methyl-piperazine-1-carbonyl)-benzenesulfonyl]-3-propyl-hexahydro-pyrrolo[3,2-b]pyrrol-2-one hydrochloride]	40 nM
